Read-outs that look alike come from different tables or passages of the source.
Columns and labels:
[1] = system: maximal electroshock (MES)-induced seizures; conditions: mice, ip; Table 3, Ref 30, 16, 32; cited from earlier work
[2] = system: maximal electroshock (MES)-induced seizures; experiment: Maximal electroshock seizure (MES) test, mice (ip); type: in vivo; conditions: mice, ip
Protocol: (§2) The maximal electroconvulsive shock (MES) test is regarded as a standard screen for anticonvulsant activity in terms of inhibition of seizure spread in generalized tonic-clonic seizures.
(§3) Groups of at least 8 male albino CF No. 1 mice or male albino Sprague-Dawley rats are treated with 10 mL/kg i.p. or 4 mL/kg p.o. of the test compound solution, respectively. The electrical stimulus in the MES test is 50 mA at 60 Hz for mice and 150 mA at 60 Hz for rats, both delivered for 0.2 sec. Abolition of the hind leg tonic extensor component of the seizure is used as the endpoint.

behavioral toxicity [3] = conditions: rat, po; Table 3, Ref 16, 32; cited from earlier work
[4] = system: mechanical allodynia after partial sciatic nerve ligation; experiment: Partial sciatic nerve ligation model, rats (ip); type: in vivo; conditions: dose 12, p < 0.05
[5] = system: hippocampal kindled seizures; experiment: Hippocampal kindling test, rats; type: in vivo; conditions: for Preliminary Hippocampal Kindling Test, After discharge duration, Drug / Preliminary Hippocampal Kindling Test, Seizure Score, Drug: rats; for Preliminary Hippocampal Kindling Test, Seizure Score, Drug: after drug (pre-drug score 4-5)
Protocol: The kindling model provides a tool to predict a test compound's activity in complex partial seizures.
Male albino Sprague-Dawley rats (n=8) are kindled to a Stage 5 behavioral seizure. They are treated with an appropriate i.p. dose of the test compound after a 1-week, stimulus-free period. The test compound is evaluated for its effect on kindled motor seizures (seizures scores of 4 and 5), limbic behavior seizures (seizure scores between 1 and 3) and after-discharge duration. After 15 min, each rat is stimulated every 30 min for 3-4 h. Following each stimulation, individual seizure scores and after-discharge duration are recorded. The group mean and standard error of the mean (SEM) are calculated for each parameter.

[6] = system: maximal electroshock (MES)-induced seizures; conditions: rat, po; Table 3, Ref 16, 32; cited from earlier work
[7] = system: maximal electroshock (MES)-induced seizures; experiment: Maximal electroshock seizure (MES) test, rat (po); type: in vivo; conditions: rat, time (h) in brackets, Table 2
Protocol: as §2, §3

behavioral toxicity [8] = experiment: Toxicity (behavioral toxicity), rat (po); type: in vivo
Protocol: (§1) Tests are conducted in groups of at least 8 mice or rats to determine the intrinsic neurotoxicity (neuromuscular impairment) after administration of the test compound by the route of administration to be used in the pharmacology studies. Neurotoxicity is determined in male CF No 1 mice by the rotarod procedure. Inability of the mouse to maintain its equilibrium in 3 trials during 1 min on this rotating rod (6 rpm) is used as an indication of such impairment. In Sprague-Dawley rats, minimal motor impairment (MMI) is determined by overt evidence of ataxia, abnormal gait, and stance.

[9] = system: neurologic toxicity (rotorod test); conditions: mice, ip, Table 3, Ref 30, 16, 32; cited from earlier work
[10] = system: neurologic toxicity (rotorod test); experiment: Neurologic toxicity, rotorod test, mice (ip); type: in vivo; conditions: rotorod test
Protocol: as §1

6 Hz seizures = experiment: 6 Hz seizure model, mice (ip); type: in vivo; conditions: mice, ip
[11] = time (h) in brackets, Table 2, footnotes not given

CC(=O)N[C@@H](C)C(=O)NCc1ccccc1 [(S)-4, reference compound]
MES, ED50 [1]: 8.0 milligrams per kilogram | MES, ED50 ([2]; 95% confidence intervals in parentheses, Table 1): 550 (460-740) mg/kg

CCC1(c2ccccc2)C(=O)NC(=O)NC1=O [Phenobarbital, reference compound]
Tox, TD50 (behavioral toxicity [3]): 61 [0.5] milligrams per kilogram | MES, ED50 [2, 11]: 22 [1]

COC[C@@H](NC(C)=O)C(=O)NCc1ccc(OCc2cccc(F)c2)cc1 [(R)-3, (R)-2-Acetamido-N-(4-(3-fluorobenzyloxy)benzyl)-3-methoxypropanamide]
fold attentaution of mechanical allodynia at 1 h [4]: 11.2 fold attentaution of mechanical | ED50 ([2]; Mus musculus, time (h) in brackets, Table 2, footnotes not given): 13 mg/kg | ED50 ([5]; Rattus norvegicus, ip, read-out: Hippocampal Kindled Rats (ip) ED50 (inteval)): 12 mg/kg | Preliminary Hippocampal Kindling Test, After discharge duration, Drug [5]: 0 s | Preliminary Hippocampal Kindling Test, Seizure Score, Drug [5]: 0

CCCC(CCC)C(=O)O [valproate]
MES, ED50 [1]: 270 [0.25] milligrams per kilogram | MES, ED50 [6]: 490 [0.5] milligrams per kilogram | MES, ED50 [2, 11]: 270 [0.25] | MES, ED50 [7]: 490 [0.5]

O=C1NC(=O)C(c2ccccc2)(c2ccccc2)N1 [phenytoin, reference compound]
Tox, TD50 (behavioral toxicity [8]; time (h) in brackets, Table 2): ^hNo ataxia observed up to 3000 mg/kg. | Tox, TD50 [9]: 66 [2.0] milligrams per kilogram | MES, ED50 [6]: 30 [4.0] milligrams per kilogram | MES, ED50 [7]: 30 [4] | Preliminary Hippocampal Kindling Test, After discharge duration, Drug [5]: 51 s | Preliminary Hippocampal Kindling Test, Seizure Score, Drug [5]: 3

COC[C@@H](NC(C)=O)C(=O)NCc1ccc(OCc2cccc(F)c2)cc1 [(R)-10, (R)-2-Acetamido-N-(4-(3-fluorobenzyloxy)benzyl)-3-methoxypropanamide]
Tox, TD50 (behavioral toxicity [8]; behavioral toxicity, Table 3): >500 [0.5] milligrams per kilogram | Tox, TD50 (behavioral toxicity [8]; behavioral toxicity, Table b607): >500 [0.5] milligrams per kilogram | Tox, TD50 (behavioral toxicity [8]; behavioral toxicity, Table b608): >500 [0.5] milligrams per kilogram | Tox, TD50 (behavioral toxicity [8]; time (h) in brackets, Table 2): > 280 mg/kg | Tox, TD50 ([10]; Table 3): 26 [0.5] milligrams per kilogram | Tox, TD50 ([10]; Table b607): 26 [0.5] milligrams per kilogram | Tox, TD50 ([10]; Table b608): 26 [0.5] milligrams per kilogram | MES, ED50 ([2]; time (h) in brackets, (X′—Y′—Z′ group)): 13 [0.25] milligrams per kilogram | MES, ED50 ([2]; time (h) in brackets, (terminal ring group)): 13 [0.25] milligrams per kilogram | MES, ED50 ([2]; time (h) in brackets, Table 3, NINDS ASP): 13 [0.25] milligrams per kilogram | 6 Hz, ED50 (6 Hz seizures; Table 3): ~10 [0.25] milligrams per kilogram | 6 Hz, ED50 (6 Hz seizures; Table b607): ~10 [0.25] milligrams per kilogram | 6 Hz, ED50 (6 Hz seizures; Table b608): ~10 [0.25] milligrams per kilogram | MES, ED50 [7]: 4.9 [1]

Reference: patent US8933065B2, “N-benzylamide substituted derivatives of 2-(acylamido)acetic acid and 2-(acylamido)propionic acids: potent neurological agents” (The University of North Carolina at Chapel Hill, priority 2008, dated 2015)
